One data set addresses T1, PPARα (Homo sapiens, UniProt Q07869).
T1 construct: expressed in transfected cells; host or cells: Hela cells
T1 sequence (Q07869 1-468): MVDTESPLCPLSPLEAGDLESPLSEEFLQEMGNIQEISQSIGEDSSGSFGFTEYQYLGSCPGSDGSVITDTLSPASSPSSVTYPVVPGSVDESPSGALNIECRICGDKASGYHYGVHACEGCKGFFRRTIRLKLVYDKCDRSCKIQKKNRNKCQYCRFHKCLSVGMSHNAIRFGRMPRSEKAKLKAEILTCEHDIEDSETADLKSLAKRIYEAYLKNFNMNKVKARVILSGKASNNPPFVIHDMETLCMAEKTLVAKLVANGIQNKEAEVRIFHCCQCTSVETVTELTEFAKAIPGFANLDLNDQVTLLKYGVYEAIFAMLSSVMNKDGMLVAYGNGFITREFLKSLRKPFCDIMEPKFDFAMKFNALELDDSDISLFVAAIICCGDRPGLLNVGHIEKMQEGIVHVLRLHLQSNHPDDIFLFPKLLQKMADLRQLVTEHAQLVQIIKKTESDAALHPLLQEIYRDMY
Nature of the data set: Hela cell/luciferase reporter gene method, PPARα agonist activity. The following applies: Hela cells, pPPRE3-TK-Luciferase reporter, 24 hrs incubation; read-out: agonistic activity on PPAα (EC50). Format: cell-based. The procedure: (§1) This example measures the biological activity of a PPAR agonist using the Hela cell/luciferase reporter gene method.
(§2) The target plasmids PCMV PPARα (Ampicillin+), PCMV PPARγ (Ampicillin+), PCMV PPARδ (Ampicillin+), and pPPRE3-TK-Luciferase (Ampicillin+) were introduced into DH5a competent cells by heat shock treatment, respectively. After being incubated for 1 hour at 37° C. with shaking (180 rpm), the cells were inoculated on LB agar solid medium containing antibiotic Ampicillin, and invertedly cultured at 37° C. for 12-16 hours. Then the monoclonal colony cultured on the medium was taken and inoculated into LB liquid medium for expanded culture. The desired plasmid was extracted from the resulting bacterial solution with a Plasmid Midi Kit (Qiagen; #12143). The plasmid obtained by centrifugation was suspended in TE buffer, and the plasmid concentration was measured and the mixture was stored at −20° C. Hela cells in the exponential phase were seeded in 6-well plates (8-10^5 cells/well), and after 6-8 hours of culture, the cells were transfected using Lipofectamine® 3000 Transfection Reagent (Invitrogen; #L3000015). A plasmid containing a PPAR binding site (peroxisome proliferator response element, PPRE) and a firefly luciferase gene (pPPRE3-TK-Luciferase) and PPAR expression vector were co-transfected into a Hela cell with a total amount of plasmid DNA of 2.5 ug (the mass ratio of each PPAR expression vector is pPPRE:PPARα=6:1, pPPRE:PPARδ=8:1, and pPPRE:PPARγ=2:1) to construct a drug screening cell model for PPAR agonists. PPAR was binded to the ligand and then binded to the peroxisome proliferator response element (PPRE), thereby initiating downstream firefly luciferase expression and its expression intensity was directly proportional to the degree of PPAR activation. The cells after 24 hours transfection were prepared into a cell suspension with a cell concentration of […] by a complete culture solution, and seeded into a 96-well plate with 100 ul per well. After overnight culture, the medium was changed to a medium containing 1% FBS. 10 mM candidate compound stock (1000×) were 4-fold diluted in DMSO for 8 points, then supplemented with medium containing 1% FBS to a final concentration of 50 uM (5×) by addition of 25 μl of 5× compound diluent to each well in different concentration gradients and incubated under 37° C., 5% CO2 incubator for 24 hrs. The 96-well plate was taken out and 30 μl of Bright-Glo™ Luciferase Assay System (Promega #E2620) was added to each well. The Luciferase luminescence intensity was measured by a SynergyH1 full-function microplate detector. The obtained data was used to calculate EC50 using GraphPad Prism 5.0 software to determine the biological activity of the compound.
(§3) The agonistic activity of the compounds synthesized in Examples 1-41 on PPAR is represented by EC50 (see Table 1). EC50 refers to the drug concentration at which the compound has a 50% increase in the agonistic activity of the measured PPAR. The compound numbers in Table 1 correspond to the compound numbers in Examples 1-41.

Another data set concerns the target T2, PPARγ (Homo sapiens, UniProt P37231).
T2 construct: expressed in transfected cells; host or cells: Hela cells
T2 sequence (P37231 1-505): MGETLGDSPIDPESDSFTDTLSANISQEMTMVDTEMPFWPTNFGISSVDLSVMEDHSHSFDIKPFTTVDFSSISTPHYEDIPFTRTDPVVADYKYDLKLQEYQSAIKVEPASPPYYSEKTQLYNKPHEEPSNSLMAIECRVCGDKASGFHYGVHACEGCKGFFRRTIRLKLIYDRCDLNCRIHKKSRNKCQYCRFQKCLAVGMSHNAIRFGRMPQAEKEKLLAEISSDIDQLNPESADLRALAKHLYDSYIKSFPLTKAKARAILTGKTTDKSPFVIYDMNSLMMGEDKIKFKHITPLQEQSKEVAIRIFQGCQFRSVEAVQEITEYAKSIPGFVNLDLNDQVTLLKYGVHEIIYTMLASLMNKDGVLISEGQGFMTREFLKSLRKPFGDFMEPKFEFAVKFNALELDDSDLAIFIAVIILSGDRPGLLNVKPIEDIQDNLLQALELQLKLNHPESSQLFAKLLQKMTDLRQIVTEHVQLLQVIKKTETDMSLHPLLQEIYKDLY
Nature of the data set: Hela cell/luciferase reporter gene method, PPARγ agonist activity. The following applies: Hela cells, pPPRE3-TK-Luciferase reporter, 24 hrs incubation; read-out: agonistic activity on PPARγ (EC50). The format is cell-based. The procedure:
as §1, §2, §3
(In a reporter assay the amount or activity of a reporter protein is the signal.)

The next data set deals with T3, PPARδ (Homo sapiens, UniProt Q03181).
T3 construct: expressed in transfected cells; host or cells: Hela cells
T3 sequence (Q03181 1-441): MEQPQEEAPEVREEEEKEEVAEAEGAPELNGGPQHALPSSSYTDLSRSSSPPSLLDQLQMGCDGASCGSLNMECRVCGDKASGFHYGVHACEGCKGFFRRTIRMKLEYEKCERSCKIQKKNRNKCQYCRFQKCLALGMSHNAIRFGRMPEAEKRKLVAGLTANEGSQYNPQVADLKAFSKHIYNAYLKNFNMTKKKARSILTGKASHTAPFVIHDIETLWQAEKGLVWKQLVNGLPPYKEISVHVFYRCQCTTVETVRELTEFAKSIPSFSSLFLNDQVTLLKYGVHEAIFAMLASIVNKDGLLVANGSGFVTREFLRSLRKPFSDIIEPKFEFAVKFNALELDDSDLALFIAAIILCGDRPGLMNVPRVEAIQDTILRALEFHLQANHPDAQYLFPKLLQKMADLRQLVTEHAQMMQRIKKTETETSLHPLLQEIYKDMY
Nature of the data set: Hela cell/luciferase reporter gene method, PPARδ agonist activity. The format is cell-based. The following applies: Hela cells, pPPRE3-TK-Luciferase reporter, 24 hrs incubation; read-out: agonistic activity on PPARδ (EC50). The procedure: as §1
as §2, with “The desired plasmid was extracted from the resulting bacterial solution with a Plasmid Midi Kit (Qiagen; #12143).” left out

The nature of data set [1]: Pharmacokinetic (PK) experiments after intragastric administration in rats. Format: in vivo, SD rats. The following applies: male, SD, rat, plasma, po, intragastric administration 20 mg/kg. The procedure: Male SD rats, weighing 250-300 grams, were fasted overnight before testing. The test compound was dissolved in 30% sulfobutyl-R-cyclodextrin (SBE-β-CD) and administered intragastrically at a dose of 20 mg/kg. Blood was collected 15 minutes, 30 minutes, and 1, 2, 3, 4, […] and 24 hours after the administration. About 0.3 ml of blood was collected at each time point, placed in a centrifuge tube containing K2-EDTA (dipotassium ethylenediamine tetraacetate) and centrifuged (2,000 g, 10 minutes, 4° C.) to take the plasma, which was stored in an ultra-low temperature refrigerator at −80° C. A 50 μL plasma sample was mixed with 5 μl of internal standard (IS) and extracted with ethyl acetate. The residue was redissolved in acetonitrile after drying under vacuum. The sample was filtered and injected into an LC-MS/MS for analysis.

Broadly, the EC50 is the concentration that produces a half-maximal response. Consider `COc1ccc(C(=O)/C=C/c2cc(C)c(OC(C)(C)C(=O)O)c(C)c2)c2occc12` [Compound 1, (E)-2-(4-(3-(4-methoxybenzofuran-7-yl)-3-oxoprop-1-en-1-yl)-2,6-dimethylphenoxy)-2-methylpropanoic acid], for which the concentration for a half-maximal effect (EC50) came out at 0.42 µM at PPARα and 0.172 µM at PPARγ.

Take `Cc1cc(/C=C/C(=O)c2cccc3ccoc23)cc(C)c1OC(C)(C)C(=O)O` [Compound 3, (E)-2-(4-(3-(benzofuran-7-yl)-3-oxoprop-1-en-1-yl)-2,6-dimethylphenoxy)-2-methylpropanoic acid]: the figures for the half-maximal effective concentration (EC50) at PPARα and on PPARγ were 0.453 µM and 0.577 µM, respectively.

Turning to `CSc1ccc(C(=O)/C=C/c2ccc(OC(C)(C)C(=O)O)cc2)c2occc12` [Compound 12, (E)-2-methyl-2-(4-(3-(4-(methylthio)benzofuran-7-yl)-3-oxoprop-1-en-1-yl)phenoxy)propanoic acid], the concentration for a half-maximal effect (EC50) at PPARα was determined as 0.0998 µM; on PPARγ, 0.279 µM.

In the case of `CSc1ccc(C(=O)/C=C/c2cc(C)c(OCC(=O)O)c(C)c2)c2occc12` [Compound 13, (E)-2-(2,6-dimethyl-4-(3-(4-(methylthio)benzofuran-7-yl)-3-oxoprop-1-en-1-yl)phenoxy)acetic acid], the EC50 at PPARα was found to be 0.476 µM; at PPARγ, 3.41 µM.

Take `CSc1ccc(C(=O)/C=C/c2cc(C)c(OC(C)(C)C(=O)O)c(C)c2)c2oc(C)cc12` [Compound 14, (E)-2-(2,6-dimethyl-4-(3-(2-methyl-4-(methylthio)benzofuran-7-yl)-3-oxoprop-1-en-1-yl)phenoxy)-2-methylpropanoic acid]: the figures for the concentration giving a half-maximal response (EC50) at PPARα and on PPARγ were 0.156 µM and 0.122 µM, respectively.

Regarding `Cc1cc(/C=C/C(=O)c2ccc3sccc3c2)cc(C)c1OC(C)(C)C(=O)O` [Compound 38, (E)-2-(4-(3-(benzo[b]thiophen-5-yl)-3-oxoprop-1-en-1-yl)-2,6-dimethylphenoxy)-2-methylpropanoic acid], the concentration giving a half-maximal response (EC50) at PPARα was greater than 10 µM; at PPARδ, 0.838 µM.

As to `Cc1ccc2cc(C(=O)/C=C/c3cc(C)c(OC(C)(C)C(=O)O)c(C)c3)oc2c1` [Compound 50, (E)-2-(2,6-dimethyl-4-(3-(6-methylbenzofuran-2-yl)-3-oxoprop-1-en-1-yl)phenoxy)-2-methylpropanoic acid], the EC50 was 0.123 µM on PPARα and 0.167 µM at PPARγ.

Consider `CSc1ccc2cc(C(=O)/C=C/c3ccc(OC(C)(C)C(=O)O)cc3)oc2c1` [Compound 56, (E)-2-methyl-2-(4-(3-(6-(methylthio)benzofuran-2-yl)-3-oxoprop-1-en-1-yl)phenoxy)propanoic acid], for which the half-maximal effective concentration (EC50) on PPARα was 0.0839 µM; on PPARγ, 1.1 µM.

In general, AUC(0-inf) refers to the area under the concentration-time curve extrapolated to infinity. As a reminder, the AUC(0-t) is the area under the concentration-time curve up to a stated or last time point. What is called Cmax is the maximum level reached in the sampled fluid or tissue. The Tmax is the time at which the peak concentration occurs. With `CSc1ccc(C(=O)/C=C/c2cc(C)c(OC(C)(C)C(=O)O)c(C)c2)cc1` [Elafibranor, reference compound], the EC50 at PPARα is 0.0292 µM. Moreover, in data set [1], the AUC(0-inf) worked out at 1.35 µg·h/mL, the exposure AUC(0-t) is 1.35 µg·h/mL, the highest level (Cmax) was 1.14 µg/mL and the Tmax was determined as 19.8 min. In addition, the half-life in data set [1] (read-out: Terminal T1/2 (converted)) is 49.2 min. For the same compound, the EC50 at PPARγ was 0.0866 µM.

The record behind these values is patent US11306102B2, “1,3-di-substituted ketene compound and application thereof” (BEBETTER MED INC., priority 2017, dated 2022).
